Reference: patent US5373020A, “Substituted 5-(2-((2-aryl-2-hydroxyethyl)amino)propyl)-1,3-benzodioxoles” (American Cyanamid Company, priority 1993, dated 1994)
Counter-ions that a name gives are not always drawn.

Columns and labels:
[1] = tested on: ob/ob mice; experiment: Plasma glucose, compound in chow, obese mice; assay type: in vivo, mouse (C57 B1/6J ob/ob)
Experimental: (§1) The compounds of this invention were tested for hypoglycemic and anti-obesity activity according to the following procedure.
(§2) Obese mice (C57 B1/6J (ob/ob)), and/or diabetic mice (C57 B1/KsJ (db/db)) were obtained from Jackson Laboratories, Bar Harbor, Maine. Obese rats (fa/fa) were obtained from Charles River Laboratories, Wilmington, Mass. Obese mice were 8 weeks of age and diabetic mice were 9 weeks of age at the start of the test. Obese rats were 12-14 weeks of age at the start.
(§3) The test compounds were dissolved in methanol, mixed with powdered Purina rodent chow on a weight of compound to weight of chow basis and thoroughly dried.
(§4) Groups of 6 control mice or rats received vehicle (methanol) treated chow.
[…] Thus, a 40 g mouse, fed the test compound at a concentration of 0.02 percent of the diet, would receive a dose of 20 mg/kg/day if it ate 4 g of chow per day.
(§5) The mice or rats were weighed before the first treatment and once at the end of each indicated treatment period.
(§6) Blood samples were collected before the first treatment and once at the end of each indicated treatment period by retro-orbital puncture using heparinized capillary tubes.
(§7) Plasma was separated by centrifugation in a Beckman microfuge for 5 minutes. Plasma glucose concentrations were determined with the Beckman glucose analyzer which uses a glucose oxidase method.

[2] = biological target: T1, β2-receptors (Mus musculus, UniProt P18762); experiment: Inhibition of insulin-mediated incorporation of 14C-glucose into glycogen in isolated soleus muscle (β2-effect)
T1 construct: Soleus muscle from mice were dissected; from tissue; host or cells: mouse soleus muscle
T1 sequence (P18762 whole entry): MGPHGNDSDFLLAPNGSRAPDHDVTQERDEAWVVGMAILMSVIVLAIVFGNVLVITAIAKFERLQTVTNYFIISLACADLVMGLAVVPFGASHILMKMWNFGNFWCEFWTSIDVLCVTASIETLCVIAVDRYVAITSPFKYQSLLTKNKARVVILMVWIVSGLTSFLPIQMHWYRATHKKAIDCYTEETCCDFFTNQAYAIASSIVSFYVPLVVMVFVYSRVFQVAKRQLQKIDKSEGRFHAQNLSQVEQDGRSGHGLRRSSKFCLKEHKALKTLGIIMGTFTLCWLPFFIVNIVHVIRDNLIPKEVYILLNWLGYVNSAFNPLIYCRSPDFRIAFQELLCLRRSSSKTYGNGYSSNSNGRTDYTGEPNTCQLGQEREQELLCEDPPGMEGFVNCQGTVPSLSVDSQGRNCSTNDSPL
Experimental: (§8) β-Adrenergic receptors can be divided into β1, β2 and β3 -subtypes. Activation of β1 -receptors invokes increases in heart rate while activation of β2 -receptors stimulates glycogen breakdown in muscle and thereby prevents glycogen synthesis. Activation of β3 -receptors stimulates lipolysis (the breakdown of adipose tissue triglycerides to glycerol and free fatty acids), and thereby promotes the loss of fat mass.
The β2 -effect of the compounds was determined by their ability to inhibit the insulin-mediated incorporation of ^14 C-glucose into glycogen in isolated muscle. Soleus muscle from mice were dissected, tied at each end, and placed in a clamp to maintain tension. The clamped muscle was added to a vial that contained 2 ml of KHB with 1.5% bovine serum albumin, 0.3 mU/ml insulin, 5 mM (U^-14 C) glucose, and the appropriate additions of compound or vehicle. The vial was gassed with 95% O2 -5% CO2, capped, and the tissue incubated for one hour in a rotating water bath at 37° C. The muscle was then removed, rinsed in ice-cold saline, blotted and weighed. It was then added to 1 ml of 30% KOH containing 5 mg/ml of oyster glycogen, boiled for 10 minutes, and 0.4 ml of 2% Na2 SO4 and 3.2 ml of 100% ethanol added. After standing overnight at 4° C., the glycogen was pelleted by centrifugation, washed once with 66% ethanol, and repelleted. The pellet was dissolved in 1 ml of water and the amount of radioactivity present determined by liquid scintillation.

[3] = tested on: ob/ob mice; experiment: Change in weight and food consumption, compound in chow, obese mice; assay type: in vivo, mouse (C57 B1/6J ob/ob)
Experimental: as §1, §2, §3, §4
(§9) Groups of 6 test mice were fed ad libitum for up to seven weeks and food consumption was measured daily by weighing the food bins before and after the addition of fresh chow. Thus, a 40 g mouse, fed the test compound at a concentration of 0.02 percent of the diet, would receive a dose of 20 mg/kg/day if it ate 4 g of chow per day.
as §5

[4] = tested on: fa/fa rats; experiment: Change in weight and food consumption, compound in chow, obese rats; assay type: in vivo, rat (fa/fa)
Experimental: as §1, §2, §3, §4
Groups of 6 test rats were fed 25 g of chow per day for one month. Except for the first day or two, they consumed all their food each day. When these animals are fed ad libitum, they consume 26 g of chow per day and the compounds have no effect on food consumption.
as §5

[5] = biological target: T2, β1-receptors (Cavia porcellus, UniProt H0W3H1); experiment: Effect on heart rate of isolated right atria (β1-effect); parameters: species or system guinea pig
T2 construct: from tissue; host or cells: guinea pig right atria
T2 sequence (H0W3H1 1-470): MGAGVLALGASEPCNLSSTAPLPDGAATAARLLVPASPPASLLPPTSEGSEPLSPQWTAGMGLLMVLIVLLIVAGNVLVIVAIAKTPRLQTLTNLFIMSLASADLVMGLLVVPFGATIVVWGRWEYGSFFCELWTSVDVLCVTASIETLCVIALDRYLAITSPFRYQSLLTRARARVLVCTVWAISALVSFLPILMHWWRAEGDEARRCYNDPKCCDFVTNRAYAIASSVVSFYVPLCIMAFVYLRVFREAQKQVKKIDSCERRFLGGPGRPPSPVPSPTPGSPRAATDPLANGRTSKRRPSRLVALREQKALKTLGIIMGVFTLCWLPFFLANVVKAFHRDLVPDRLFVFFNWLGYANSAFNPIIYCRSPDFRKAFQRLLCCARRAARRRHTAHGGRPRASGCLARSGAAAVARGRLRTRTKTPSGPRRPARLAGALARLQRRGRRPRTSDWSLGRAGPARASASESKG
Experimental: as §8
Selectivity of a compound was determined using the following procedures. The effect on heart rate (β1 -effect) was determined using isolated right atria. […] The right atria were dissected and clamped at one end to a tissue holder and electrode assembly (MRA Corp.) and tied at the other end to a force-displacement transducer (Gould-Statham, Burco). The tissues were maintained at 32° C. in a 50 ml capacity glass chamber (MRA Corp.) preloaded with 0.5 g tension. Heart rate was monitored by a Grass polygragh. […] The increase in heart rate was calculated and considered to be the maximum response for that tissue. The tissues were then washed and allowed to equilibrate for 90 minutes. Cumulative concentration-response curves were then determined for each compound or vehicle. All responses were measured 5 minutes post-exposure.

[6] = tested on: db/db mice; experiment: Plasma glucose, compound in chow, diabetic mice; assay type: in vivo, mouse (C57 B1/KsJ db/db)
Experimental: as §1, §2, §3, §4, §9, §5, §6, §7

[7] = dose 0.0005 % wt of chow, week 0 (before treatment)
[8] = dose 0.0005 % wt of chow, week 1
[9] = dose 0.0005 % wt of chow, week 4
[10] = dose 0.002 % wt of chow, week 0 (before treatment)
[11] = dose 0.002 % wt of chow, week 1
[12] = dose 0.002 % wt of chow, week 4
[13] = dose 0.005 % wt of chow, week 0 (before treatment)
[14] = dose 0.005 % wt of chow, week 1
[15] = dose 0.005 % wt of chow, week 4
[16] = dose 0.002 % wt of chow, week 2
[17] = dose 0.002 % wt of chow, week 3

## COC(=O)C1(C(=O)OC)Oc2ccc(C[C@@H](C)NC[C@H](O)c3cccc(Cl)c3)cc2O1 (stereo in doubt) [CL1, (R* R*)-(±)-5-(2-((2-(3-chlorophenyl)-2-hydroxyethyl)amino)propyl)-1,3-benzodioxole-2,2-dicarboxylic acid, dimethyl ester hydrobromide]
[1]; [7]
  Plasma Glucose Levels: 270 mg/100 ml
[1]; [8]
  Plasma Glucose Levels: 164 mg/100 ml
[1]; [9]
  Plasma Glucose Levels: 179 mg/100 ml
[1]; [10]
  Plasma Glucose Levels: 276 mg/100 ml
[1]; [11]
  Plasma Glucose Levels: 150 mg/100 ml
[1]; [12]
  Plasma Glucose Levels: 156 mg/100 ml
[1]; [13]
  Plasma Glucose Levels: 237 mg/100 ml
[1]; [14]
  Plasma Glucose Levels: 143 mg/100 ml
[1]; [15]
  Plasma Glucose Levels: 157 mg/100 ml
[2]
  EC50: 800 nM
[3]; dose 0.0005 % wt of chow
  Average Daily Food Consumption: 5.6 g/animal
[3]; [8]
  Change in weight: 0.5 grams
[3]; dose 0.0005 % wt of chow, week 2
  Change in weight: 2.2 grams
[3]; dose 0.0005 % wt of chow, week 3
  Change in weight: 3.2 grams
[3]; [9]
  Change in weight: 5.2 grams
[3]; dose 0.002 % wt of chow
  Average Daily Food Consumption: 5.6 g/animal
[3]; [11]
  Change in weight: -0.3 grams
[3]; [16]
  Change in weight: 1.1 grams
[3]; [17]
  Change in weight: 1.6 grams
[3]; [12]
  Change in weight: 3.2 grams
[3]; dose 0.005 % wt of chow
  Average Daily Food Consumption: 5.8 g/animal
[3]; [14]
  Change in weight: -1.1 grams
[3]; dose 0.005 % wt of chow, week 2
  Change in weight: -0.7 grams
[3]; dose 0.005 % wt of chow, week 3
  Change in weight: -0.2 grams
[3]; [15]
  Change in weight: 1.6 grams
[4]; dose 0.0006 % wt of chow
  Average Daily Food Consumption: 25 g/animal
[4]; dose 0.0006 % wt of chow, week 1
  Change in weight: 14 grams
[4]; dose 0.0006 % wt of chow, week 2
  Change in weight: 20 grams
[4]; dose 0.0006 % wt of chow, week 3
  Change in weight: 27 grams
[4]; dose 0.0006 % wt of chow, week 4
  Change in weight: 26 grams
[4]; dose 0.002 % wt of chow
  Average Daily Food Consumption: 25 g/animal
[4]; [11]
  Change in weight: 1 grams
[4]; [16]
  Change in weight: 2 grams
[4]; [17]
  Change in weight: 3 grams
[4]; [12]
  Change in weight: 4 grams
[4]; dose 0.006 % wt of chow
  Average Daily Food Consumption: 25 g/animal
[4]; dose 0.006 % wt of chow, week 1
  Change in weight: 10 grams
[4]; dose 0.006 % wt of chow, week 2
  Change in weight: 4 grams
[4]; dose 0.006 % wt of chow, week 3
  Change in weight: -15 grams
[4]; dose 0.006 % wt of chow, week 4
  Change in weight: -8 grams
[5]
  EC50: 14 nM
[6]; [7]
  Plasma Glucose Levels: 452 mg/100 ml
[6]; [8]
  Plasma Glucose Levels: 162 mg/100 ml
[6]; dose 0.0005 % wt of chow, week 5
  Plasma Glucose Levels: 164 mg/100 ml
[6]; dose 0.0005 % wt of chow, week 7
  Plasma Glucose Levels: 17 mg/100 ml
[6]; [10]
  Plasma Glucose Levels: 453 mg/100 ml
[6]; [11]
  Plasma Glucose Levels: 151 mg/100 ml
[6]; dose 0.002 % wt of chow, week 5
  Plasma Glucose Levels: 150 mg/100 ml
[6]; dose 0.002 % wt of chow, week 7
  Plasma Glucose Levels: 16 mg/100 ml
[6]; [13]
  Plasma Glucose Levels: 447 mg/100 ml
[6]; [14]
  Plasma Glucose Levels: 148 mg/100 ml
[6]; dose 0.005 % wt of chow, week 5
  Plasma Glucose Levels: 138 mg/100 ml
[6]; dose 0.005 % wt of chow, week 7
  Plasma Glucose Levels: 18 mg/100 ml
